Measurements reported in patent US10517889B2, “Modulators of SMAD7 expression” (Ionis Pharmaceuticals, Inc., priority 2017, dated 2019).
Strand notation (5' to 3'): a small letter for the sugar, then the base; units joined by * are phosphorothioate-linked, units joined directly phosphodiester-linked; [ ] holds rarer units or linkages, { } end groups; capitals alone tell only the bases. k = constrained ethyl (cEt); [5mC] = 5-methylcytosine; d = 2'-deoxy (DNA)

system: human SMAD7 mRNA; assay: Antisense inhibition of human SMAD7 mRNA expression in Hep3B cells by 3-10-3 cEt gapmers, 10,000 nM, electroporation (Example 2); assay type: cell-based; conditions: Hep3B cells, 10,000 nM antisense oligonucleotide, electroporation, approximately 24 hours, RT-PCR primer probe set RTS5062, relative to untreated control cells
Protocol: Antisense oligonucleotides were designed to target human SMAD7 mRNA and were tested for their effects on SMAD7 mRNA expression in vitro. The antisense oligonucleotides were tested in a series of experiments that had similar culture conditions, as described below. ION 771576, described in the studies above and which is a 5-10-5 MOE gapmer, was also included in these assays. Cultured Hep3B cells at a density of 20,000 cells per well were transfected using electroporation with 10,000 nM antisense oligonucleotide. After a treatment period of approximately 24 hours, RNA was isolated from the cells and SMAD7 mRNA levels were measured by quantitative real-time PCR. Primer probe set RTS5062 was used to measure human SMAD7 mRNA levels. SMAD7 mRNA levels were adjusted according to total RNA content, as measured by RIBOGREEN®. Results are presented as percent inhibition of SMAD7 mRNA expression, relative to untreated control cells.
The newly designed chimeric antisense oligonucleotides in the Tables below were designed as 3-10-3 cEt gapmers. The gapmers are 16 nucleosides in length, wherein the central gap segment comprises often 2′-deoxynucleosides and is flanked by wing segments on the 5′ direction and the 3′ direction comprising three nucleosides each. Each nucleoside in the 5′ wing segment and each nucleoside in the 3′ wing segment has a cEt sugar modification. The internucleoside linkages throughout each gapmer are phosphorothioate (P═S) linkages. All cytosine residues throughout each gapmer are 5-methylcytosines.
“Start site” indicates the 5′-most nucleoside to which the gapmer is targeted in the human gene sequence. “Stop site” indicates the 3′-most nucleoside to which the gapmer is targeted human gene sequence. […] Some of the oligonucleotides presented were complementary to SMAD7 mRNA sequences RefSeqNo. NM_001190821.1 (designated herein as SEQ ID NO: 3) or RefSeqNo. NM_001190822.1 (designated herein as SEQ ID NO: 4), and are presented in a separate table shown below.

Row | Substance | % Inhibition
1 | 800034 (k[5mC]*k[5mC]*kG*d[5mC]*dA*d[5mC]*dG*dA*d[5mC]*dA*dT*d[5mC]*d[5mC]*k[5mC]*k[5mC]*k[5mC]; antisense) [compound 800034] | 47%
2 | 799958 (antisense kG*kT*kG*dG*dA*dG*dA*dG*dT*dG*d[5mC]*dT*dG*k[5mC]*kA*k[5mC]) [compound 799958] | 23%
3 | 799871 (kT*kT*kG*dG*dA*d[5mC]*dA*d[5mC]*dA*d[5mC]*dT*d[5mC]*dA*k[5mC]*kT*kG; antisense) [compound 799871] | 0%

same assay, conditions: Hep3B cells, electroporation with 10,000 nM antisense oligonucleotide, approximately 24 hours, RTS5062, percent inhibition of SMAD7 mRNA relative to untreated control cells

Row | Substance | % Inhibition
4 | 799745 (antisense kG*kG*k[5mC]*dA*dG*dT*dT*dA*dA*d[5mC]*dA*dT*dT*kT*k[5mC]*kA) [compound 799745] | 43%
5 | 799298 (antisense k[5mC]*k[5mC]*kA*dA*dA*dA*dG*dG*d[5mC]*dT*dG*dA*d[5mC]*kT*k[5mC]*kG) [compound 799298] | 54%
6 | 799744 (antisense kA*kA*kA*dG*dA*dA*dA*dA*dT*dG*dG*d[5mC]*d[5mC]*kT*kA*k[5mC]) [compound 799744] | 1%

same assay, conditions: Hep3B cells, electroporation with 10,000 nM antisense oligonucleotide, approximately 24 hours, SMAD7 mRNA by RT-PCR (RTS5062), relative to untreated control cells

Row | Substance | % Inhibition
7 | 830022 (antisense kG*kG*k[5mC]*dT*dG*d[5mC]*dA*dG*dA*dG*dT*dA*dT*kG*kG*kG) [compound 830022] | 59%
8 | 800042 (kT*kG*kT*d[5mC]*dA*dG*d[5mC]*d[5mC]*dA*d[5mC]*d[5mC]*dT*dA*kG*kG*k[5mC]; antisense) [compound 800042] | 0%
9 | 799352 (kG*k[5mC]*kG*dG*dT*dG*dA*dT*dT*dG*d[5mC]*d[5mC]*dT*kT*kG*kA; antisense) [compound 799352] | 24%
10 | 830101 (kG*k[5mC]*k[5mC]*d[5mC]*dG*d[5mC]*dT*d[5mC]*dT*d[5mC]*dA*dG*d[5mC]*k[5mC]*kA*kG; antisense) [compound 830101] | 46%
11 | 800023 (kA*kG*kG*dA*dA*dG*dA*dG*d[5mC]*d[5mC]*dT*dT*dG*kG*k[5mC]*k[5mC]; antisense) [compound 800023] | 0%
12 | 830032 (antisense kG*k[5mC]*kT*dA*d[5mC]*d[5mC]*dT*dA*dA*dT*dG*dT*d[5mC]*kA*kA*k[5mC]) [compound 830032] | 35%
13 | 830154 (antisense kG*kT*kG*d[5mC]*d[5mC]*dT*d[5mC]*dA*dG*d[5mC]*dA*dG*dT*kT*kA*kA) [compound 830154] | 48%
14 | 830184 (antisense kA*k[5mC]*kG*dG*dT*dT*dG*d[5mC]*d[5mC]*dT*d[5mC]*dA*dT*k[5mC]*k[5mC]*kT) [compound 830184] | 48%
15 | 799491 (antisense kG*kG*k[5mC]*dA*dG*dG*d[5mC]*dA*dG*dG*dA*dA*dA*kT*kG*kG) [compound 799491] | 38%
16 | 799331 (kA*kG*kG*dG*dT*dA*dT*dG*d[5mC]*dA*d[5mC]*dA*d[5mC]*kT*k[5mC]*kT; antisense) [compound 799331] | 1%
17 | 798694 (antisense kG*kT*k[5mC]*d[5mC]*dT*d[5mC]*dG*d[5mC]*d[5mC]*dG*d[5mC]*d[5mC]*dG*kG*kG*k[5mC]) [compound 798694] | 0%
18 | 799986 (kA*kA*kA*d[5mC]*dA*dT*d[5mC]*dA*d[5mC]*d[5mC]*dA*d[5mC]*dG*k[5mC]*k[5mC]*kT; antisense) [compound 799986] | 44%
19 | 798735 (antisense k[5mC]*k[5mC]*k[5mC]*d[5mC]*d[5mC]*dG*dG*d[5mC]*d[5mC]*dG*d[5mC]*dG*d[5mC]*k[5mC]*kG*kG) [compound 798735] | 0%
20 | 830123 (antisense kG*kG*k[5mC]*dA*d[5mC]*d[5mC]*dA*d[5mC]*dA*dT*dT*dT*dT*k[5mC]*kA*k[5mC]) [compound 830123] | 44%
21 | 798880 (kT*k[5mC]*k[5mC]*dA*d[5mC]*dG*dG*d[5mC]*dT*dG*d[5mC]*dT*dG*k[5mC]*kA*kT; antisense) [compound 798880] | 37%
22 | 830174 (antisense kG*kA*kG*dA*dG*dG*dT*dG*dT*dT*dT*d[5mC]*d[5mC]*kA*kA*kG) [compound 830174] | 49%
23 | 799470 (antisense kA*kA*kA*dA*dG*d[5mC]*dT*d[5mC]*d[5mC]*dG*d[5mC]*dA*dT*kA*kG*kA) [compound 799470] | 10%
24 | 830018 (antisense k[5mC]*k[5mC]*k[5mC]*dA*dA*d[5mC]*dA*dG*d[5mC]*d[5mC]*dA*dA*dA*kA*k[5mC]*kG) [compound 830018] | 10%

same assay, conditions: Hep3B cells, electroporation with 10,000 nM antisense oligonucleotide, approximately 24 hours, primer probe set RTS5062, relative to untreated control cells

Row | Substance | % inhibition of SMAD7 mRNA expression | % Inhibition
25 | 799484 (antisense k[5mC]*kG*k[5mC]*d[5mC]*dA*d[5mC]*d[5mC]*dT*dT*dT*dG*dG*d[5mC]*kT*kG*kG) [compound 799484] | 0% | –
26 | 799190 (antisense kA*kG*kA*dA*dT*dG*d[5mC]*dT*dT*d[5mC]*dT*d[5mC]*dT*kT*kG*kT) [compound 799190] | 61% | –
27 | 799169 (antisense kT*kT*kG*dA*dG*d[5mC]*dT*dA*dA*dG*dA*dA*d[5mC]*kA*kG*kT) [compound 799169] | 0% | –
28 | 798975 (antisense kT*k[5mC]*k[5mC]*d[5mC]*d[5mC]*dT*d[5mC]*dT*dT*d[5mC]*d[5mC]*dT*dA*kT*k[5mC]*kA) [compound 798975] | – | 47%
29 | 798732 (antisense kG*kG*kA*dT*dG*dG*dT*dG*dG*dT*dG*dA*d[5mC]*k[5mC]*kT*kT) [compound 798732] | 51% | –
30 | 799436 (antisense kA*kG*k[5mC]*d[5mC]*dA*dT*dT*d[5mC]*d[5mC]*dT*d[5mC]*dA*dA*kA*k[5mC]*k[5mC]) [compound 799436] | 4% | –
31 | 799476 (antisense kG*k[5mC]*kT*d[5mC]*dA*dA*dA*dG*dG*dG*d[5mC]*d[5mC]*dA*k[5mC]*k[5mC]*k[5mC]) [compound 799476] | 0% | –
32 | 799031 (kT*kG*k[5mC]*d[5mC]*dT*d[5mC]*dT*dG*d[5mC]*d[5mC]*d[5mC]*d[5mC]*dA*k[5mC]*kT*kG; antisense) [compound 799031] | 46% | –

same assay, conditions: Hep3B cells, electroporation, 10,000 nM antisense oligonucleotide, approximately 24 hours, RTS5062, relative to untreated control cells

Row | Substance | % inhibition of SMAD7 mRNA expression
33 | 799794 (kA*kA*k[5mC]*d[5mC]*dA*d[5mC]*dA*dG*d[5mC]*dT*d[5mC]*d[5mC]*dT*kG*kT*kT; antisense) [compound 799794] | 0%
34 | 799517 (antisense k[5mC]*kT*kT*dA*dA*dG*dT*dA*dG*dA*dG*d[5mC]*dA*kA*kA*kG) [compound 799517] | 0%

same assay, conditions: SMAD7 mRNA, Hep3B cells, 10,000 nM antisense oligonucleotide, electroporation, approximately 24 hours, primer probe set RTS5062, relative to untreated control cells

Row | Substance | % Inhibition
35 | 829764 (antisense k[5mC]*k[5mC]*kG*d[5mC]*dT*d[5mC]*d[5mC]*dT*dT*d[5mC]*dA*dG*dT*kT*kT*k[5mC]) [compound 829764] | 44%
36 | 772582 (k[5mC]*kT*kG*dA*dA*dA*dG*d[5mC]*d[5mC]*d[5mC]*d[5mC]*d[5mC]*d[5mC]*kA*kG*kG; antisense) [compound 772582] | 34%
37 | 790491 (kG*kT*kA*dA*dG*dA*dT*dT*d[5mC]*dA*d[5mC]*dA*dG*k[5mC]*kA*kA; antisense) [compound 790491] | 56%
38 | 772595 (kA*k[5mC]*k[5mC]*dA*d[5mC]*dG*d[5mC]*dA*d[5mC]*d[5mC]*dA*dG*dT*kG*kT*kG; antisense) [compound 772595] | 2%

same assay, conditions: SMAD7 mRNA, Hep3B cells, electroporation with 10,000 nM antisense oligonucleotide, approximately 24 hours, primer probe set RTS5062, relative to untreated control cells

Row | Substance | % Inhibition
39 | 829848 (antisense kT*kT*kG*dT*d[5mC]*d[5mC]*dG*dA*dA*dT*dT*dG*dA*kG*k[5mC]*kT) [compound 829848] | 47%
40 | 829807 (kA*kG*kA*d[5mC]*dT*d[5mC]*dT*dA*dG*dT*dT*d[5mC]*dG*k[5mC]*kA*kG; antisense) [compound 829807] | 41%
41 | 829933 (kG*kT*kG*dA*dT*dA*dA*d[5mC]*dA*d[5mC]*d[5mC]*d[5mC]*dA*kT*kA*kG; antisense) [compound 829933] | 38%
42 | 829926 (k[5mC]*kA*kT*dG*d[5mC]*dT*d[5mC]*dA*dT*dT*dG*dA*dG*k[5mC]*kT*kA; antisense) [compound 829926] | 24%
43 | 829962 (k[5mC]*kT*kG*dA*dT*dT*dA*dT*dT*dA*dA*dT*dG*kG*kT*k[5mC]; antisense) [compound 829962] | 19%
